These results are taken from patent publication US20140134658A1, “PSA ENZYMATIC ACTIVITY: A NEW BIOMARKER FOR ASSESSING PROSTATE CANCER AGGRESSIVENESS” (NORTHWESTERN UNIVERSITY, AN ILLINOIS NOT FOR PROFIT …, priority 2010, published 2014).

The subject of one test is esterases. The test is described as follows: Sacrificial ester control for esterases in a urine sample with peptide substrate. Type of test: biochemical. The settings on record: urine sample + peptide substrate 0.4 mM, with and without ester 40 mM; single experiment. How it is done: This was tested by running a urine sample (+peptide substrate; 0.4 mM) with and without a “sacrificial ester” (alanine methyl ester; 40 mM). The idea is that if there are esterases in the sample, adding a relatively high concentration of ester will prevent them from cleaving the peptide substrate and we should therefore see a higher turnover of substrate.

A further test deals with T1, PSA (Homo sapiens, UniProt P07288).
T1 construct: purchased Scripps Laboratories
T1 sequence (P07288 25-261): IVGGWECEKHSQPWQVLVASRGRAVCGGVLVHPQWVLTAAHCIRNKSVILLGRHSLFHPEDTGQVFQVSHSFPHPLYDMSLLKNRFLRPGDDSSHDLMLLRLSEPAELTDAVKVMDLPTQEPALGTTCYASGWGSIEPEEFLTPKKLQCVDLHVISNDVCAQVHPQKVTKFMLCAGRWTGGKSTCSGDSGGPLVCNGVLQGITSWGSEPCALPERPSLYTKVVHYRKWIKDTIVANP
The test is described as follows: Optical (fluorogenic) assay of peptide substrate cleavage by PSA. To be noted: fluorogenic AMC-labelled substrate, 0.4 mM in buffer A. Type of test: biochemical. As for the experimental part: Serial dilution of PSA (reagent #5)+substrate
The desired clinical urine samples were thawed at room temperature, gently vortexed, and briefly centrifuged (<20 seconds) to accumulate sample at the bottom of the tube. Each 50 μL sample was transferred via pipette to the 96-well microplate. The PSA standards (20 μL) were prepared and loaded in the same way. A multichannel pipette was used to transfer the substrate (150 μL) one column at a time and the start time recorded. Once the entire plate was loaded, it was inserted into the microplate reader and analyzed every 10 min. for 2-12 hrs.
Serial dilution of AMC (reagent #6) to determine linear fluorescence range: Reagent #6 (35.9 μL) was diluted to 2.0 mL buffer A to give a concentration of 0.4 mM. A 1:2 dilution was performed to give a final concentration range of 0.4 mM-0.024 uM. This was loaded into a 96-well microplate in duplicate and scanned one time. Serial dilution of PSA (reagent #5)+substrate: 20 μL of each standard PSA standard solution (see general procedure for protein dilution above) was loaded in duplicate into a 96-well microplate followed by 150 μL of peptide substrate in buffer A (see general procedure above) and scanned for at least 3 hrs. Serial dilution of α-Chymotrypsin (reagent #8)+substrate: Same as experiment 2 but with reagent #8. […]

With `COC(=O)[C@H](C)N` [alanine methyl ester], in the test on esterases, the “effect of sacrificial ester on turnover of peptide substrate” value was “no difference between the sample run with ester and that run without ester”. With Mor-HSSK-Hic-Q-AMC, the “cleavage of substrate by PSA” value at PSA was “show cleavage by PSA”. In the case of Mor-HSSK-Hiv-Q-AMC, the “cleavage of substrate by PSA” value on PSA was “show cleavage by PSA”.
